Results as given in US12606552B2, “Bifunctional compound, preparation method therefor, and use thereof” (SUZHOU KINTOR PHARMACEUTICALS, INC., priority 2020, dated 2026).

Tested on: flank sebaceous glands of golden hamster
Experiment: In vivo efficacy on acne in female golden hamsters (growth of sebaceous plaques induced by testosterone propionate)
Details: skin smear once a day, 21 days
Description: Activity Assay Example 7: In Vivo Efficacy of Compounds on Acne in Female Golden Hamsters
1. Test object: The flank sebaceous glands of golden hamster are androgen-dependent organs, and testosterone propionate (male hormone) promotes the enlargement of sebaceous glands. This experiment is mainly to study the inhibitory effect of CB-03-01 (positive drug), Flutamide (positive drug) and the compound on sebaceous gland enlargement in female golden hamster acne model (androgen dependence), to further observe the in vivo drug efficacy of the compound, to provide the basis for clinical trials of androgen-induced acne symptoms.
Androgen (Testosterone Propionate-TP); CB-03-01 (Clascoterone, CAS No. 19608-29-8); □ Flutamide (Flutamide, CAS No. 13311-84-7); compound A46 of the present invention.
2.2 Experimental Animals, See Table 4 for Details
2.3 Administration Vehicle: Acetone. 3. Experimental Design
In this experiment, from 72 female golden hamsters, according to the size and body weight of sebaceous glands, golden hamsters were evenly distributed to each group, 6 mice per group, a total of 7 groups, and they were administered continuously for 21 days.
According to the protocol in the table, […] of drug was administered each time, it was evenly smeared on the sebaceous glands, and administered once a day.
Animal grouping and status observation: Before grouping, the body weight was weighed, and the sebaceous glands on both sides were shaved for the observation of the size of sebaceous glands. Animals were observed twice a day in the morning and afternoon during the administration period. On the 21st day after administration, the size of sebaceous glands and the body weight of animals were observed and recorded.
The size of the sebaceous glands is expressed by the area, and the vernier caliper recorded its long side (a) and short side (b), and the area of the sebaceous glands (S) is obtained from the formula for calculating the area of a rectangle. In model group and administration group, ΔS=S−S(vehicle). Growth inhibition rate (%)=(ΔS(acetone testosterone group)−ΔS (administration group))/ΔS(acetone testosterone group)*100%.

Cc1ncsc1-c1ccc(CNC(=O)[C@@H]2C[C@@H](O)CN2C(=O)[C@@H](NC(=O)COCCCCOc2ccc(-c3ccc(N4C(=S)N(c5ccc(C#N)c(C(F)(F)F)c5F)C(=O)C4(C)C)cn3)cc2)C(C)(C)C)cc1 [Compound A46]
The inhibition rate of the growth of sebaceous plaques (%) (100 μg (0.4%) + testosterone propionate 12 μg): 19.24%
The inhibition rate of the growth of sebaceous plaques (%) (200 μg (0.8%) + testosterone propionate 12 μg): 35.20%
The inhibition rate of the growth of sebaceous plaques (%) (400 μg (1.6%) + testosterone propionate 12 μg): 49.54%
The inhibition rate of the growth of sebaceous plaques (%) (800 μg (3.2%) + testosterone propionate 12 μg): 51.61%
